# Literature values, collected in patent US10466244B2, “Methods and materials for identifying therapeutic response in chronic myeloid leukemia” (RAJIV GANDHI CENTRE FOR BIOTECHNOLOGY, priority 2013, dated 2019).
# System: BCR-ABL
# Details: relative to imatinib
structure (smiles),measurement,value
"Cc1cn(-c2cc(NC(=O)c3ccc(C)c(Nc4nccc(-c5cccnc5)n4)c3)cc(C(F)(F)F)c2)cn1 [Nilotinib, nilotinib]",increased potency compared with imatinib against BCR-ABL,20- to 30 fold
